Compound in the test: Clc1ccc2c(N3CCN(CCCN4CCN(c5ccnc6cc(Cl)ccc56)CC4)CC3)ccnc2c1 [piperaquine]
How it is done: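 Kenyan Plasmodium falciparum field isolates (2008-2021) were tested in a SYBR Green I growth-inhibition assay, either immediately ex vivo (fresh samples) or in vitro after culture adaptation. Cultures were at 1% parasitemia and 2% hematocrit, incubated with serial drug dilutions for 72 h at 37 °C (5% O2, 5% CO2), then read by fluorescence. IC50 was fitted by non-linear regression of the dose-response curve.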

Regarding MDH 18/08/003, the IC50 growth inhibition turned out to be 3.81 ng/mL.
As for KOM 13/08/0034, the IC50 growth inhibition turned out to be 23.2 ng/mL.
On to KSI 15/04/743, for which the IC50 growth inhibition came out at 1.75 ng/mL.
As for KDH 21/02/0198, the figure is 34.5 ng/mL.
KOM 14/09/317: the IC50 growth inhibition was determined as 15.9 ng/mL.
In the case of KDH 21/02/0170, the IC50 growth inhibition was determined as 52.3 ng/mL.
Then KSI 15/04/730, with 5.13 ng/mL; and KOM 21/03/0202, with 3 ng/mL.
On to MGT 17/11/133, for which the IC50 growth inhibition amounted to 3.35 ng/mL.
As for MDH 16/05/150, the figure is 1.67 ng/mL; as for KCH 17/09/372, 8.45 ng/mL.
For the test system KOM 13/07/009, the IC50 growth inhibition was found to be 22.6 ng/mL.
As for 601-292, the figure is 32.2 ng/mL; as for KCH 15/05/310, 73.4 ng/mL; as for KCH 10/06/119, 12.7 ng/mL.
Then KOM 21/05/0277, with 35.3 ng/mL; and KOM 13/08/0025, with 14.7 ng/mL; and 601-0163, with 22 ng/mL.
As for KSI 15/08/809, the figure is 7.78 ng/mL.
Turning to MDH 18/08/004, the IC50 growth inhibition turned out to be 0.851 ng/mL.
KDH 21/05/0230: the IC50 growth inhibition was found to be 127 ng/mL.
KSI 19/06/0032: the IC50 growth inhibition is 28.1 ng/mL.
Then KOM 21/05/0272, with 3.7 ng/mL; and MGT 15/06/0090, with 34.3 ng/mL.
As for KDH 12/11/928, the figure is 4.44 ng/mL; as for KDH 13/09/1180, 6.78 ng/mL; as for KOM 13/11/116, 28.7 ng/mL.
Then KSI 14/02/488, with 15.7 ng/mL; and MDH 12/01/0062, with 19 ng/mL.
With KSI 14/04/534, the IC50 growth inhibition was 1.27 ng/mL.
For the test system MGT 14/03/0007, the IC50 growth inhibition amounted to 6.4 ng/mL.
For KCH 13/1/192, the IC50 growth inhibition turned out to be 67.4 ng/mL.
As for KOM 20/01/0165, the figure is 11.1 ng/mL; as for KSI 13/05/346, 50.2 ng/mL.
As for KDH 21/02/0166, the figure is 76.8 ng/mL; as for KSI 10/09/096, 11.6 ng/mL; as for KDH 16/07/1832, 4.27 ng/mL.
Take MDH 11/12/0052: the IC50 growth inhibition came out at 4.17 ng/mL.
Turning to KCH 18/07/0001, the IC50 growth inhibition was determined as 15.8 ng/mL.
As for KCH 16/07/365, the figure is 31.2 ng/mL.
Consider KDH 15/01/1569, for which the IC50 growth inhibition was found to be 4.62 ng/mL.
For the test system KOM 21/02/0228, the IC50 growth inhibition was determined as 62.6 ng/mL.
As for KOM 15/05/421 D42, the figure is 40.4 ng/mL; as for KOM 13/07/0007, 6.16 ng/mL; as for 601-006, 16 ng/mL.
As to KOM 20/02/0178, the IC50 growth inhibition turned out to be 8.32 ng/mL.
Then MGT 18/08/0004, with 1.64 ng/mL; and KDH 15/06/1658, with 20.5 ng/mL.
Take KDH 20/01/0166: the IC50 growth inhibition was 76.8 ng/mL.
For KOM 14/03/169, the IC50 growth inhibition is 15 ng/mL.
Then KOM 13/09/0051, with 20.6 ng/mL; and KSI 21/04/0062, with 10.2 ng/mL.
Then KDH 19/02/0077, with 17 ng/mL; and KSI 12/06/270, with 17.5 ng/mL; and MGT 18/09/0013, with 3.48 ng/mL.
As for KOM 14/04/222, the IC50 growth inhibition was determined as 19.3 ng/mL.
On to KOM 19/11/0147, for which the IC50 growth inhibition was 10.5 ng/mL.
KCH 10/06/0122: the IC50 growth inhibition came out at 69 ng/mL.
For 601-0140, the IC50 growth inhibition was 25.1 ng/mL.
KOM 21/08/0344: the IC50 growth inhibition was determined as 24.9 ng/mL.
As for 601-0023, the IC50 growth inhibition stood at 12.4 ng/mL.
As for MGT 19/11/0063, the figure is 13.6 ng/mL; as for 601-0018, 9.48 ng/mL.
Then MDH 19/12/0045, with 30.2 ng/mL; and KOM 19/12/155, with 20.8 ng/mL.
Then KOM 21/03/267, with 2.3 ng/mL; and MDH 10/10/0020, with 16.8 ng/mL; and KDH 16/07/1823, with 20.2 ng/mL.
KDH 11/9/709: the IC50 growth inhibition amounted to 550 ng/mL.
Turning to KOM 13/10/0073 D28/0, the IC50 growth inhibition was 15 ng/mL.
As for MDH 19/01/0031, the figure is 26.2 ng/mL; as for KSI 12/12/304, 24.4 ng/mL; as for KDH 10/12/535, 11.4 ng/mL.
As for KCH 16/05/361, the figure is 5.83 ng/mL.
On to KCH 10/05/0116, for which the IC50 growth inhibition was determined as 8.81 ng/mL.
Consider KDH 10/11/521, for which the IC50 growth inhibition was 30 ng/mL.
Turning to MGT 21/05/115, the IC50 growth inhibition stood at 6.2 ng/mL.
With KSI 16/07/908, the IC50 growth inhibition worked out at 5.24 ng/mL.
Then KOM 20/02/0179, with 15.7 ng/mL; and KDH 16/07/1826, with 25.7 ng/mL.
As for KSI 15/04/732, the figure is 6.1 ng/mL; as for MGT 14/08/034, 29.5 ng/mL.
For the test system KOM 20/01/0172, the IC50 growth inhibition is 18.4 ng/mL.
As for KOM 21/04/0219, the figure is 22.7 ng/mL.
Turning to MGT 14/03/0009, the IC50 growth inhibition turned out to be 62.4 ng/mL.
Then KSI 16/06/900, with 33.3 ng/mL.
As for KOM 19/12/0166, the figure is 35.5 ng/mL; as for 601-226, 57.2 ng/mL; as for KDH 21/02/0167, 23.3 ng/mL.
With KCH 13/9/226, the IC50 growth inhibition came to 26.8 ng/mL.
Then KDH 19/07/0120, with 7.45 ng/mL; and KDH 15/06/1659, with 16.5 ng/mL.
In the case of 601-0031, the IC50 growth inhibition was determined as 16.1 ng/mL.
KOM 13/07/0006: the IC50 growth inhibition is 10.8 ng/mL.
For the test system MGT 19/09/0057, the IC50 growth inhibition is 29.7 ng/mL.
Regarding KOM 15/05/417, the IC50 growth inhibition was found to be 1.45 ng/mL.
As for KOM 21/05/0280, the figure is 1.3 ng/mL; as for KSI 15/10/831, 25.1 ng/mL; as for KOM 16/07/0616, 30.5 ng/mL.
With KCH 10/05/108, the IC50 growth inhibition amounted to 45.1 ng/mL.
KSI 10/11/118: the IC50 growth inhibition stood at 15.7 ng/mL.
Then MDH 10/8/0014, with 1.39 ng/mL; and KCH 15/06/316, with 31.3 ng/mL.

These data come from the supplement of paper PMC9673313.
